Article PMC7602804 (Nutrients, 2020)
No end group written: not given here.

Legend:
Caco-2 monolayers [1] = assay: Apical to basolateral transport of milk peptides across Caco-2 monolayers (LC-MS/MS of basolateral medium); type: in vitro ADME, human; details: Caco-2, 3 weeks on PET inserts 0.4 μm, TEER above 400 Ω cm^2; A-B; mix of 192 purified milk peptides 0.1 mg/mL apical; HBSS + 10 mM HEPES; 2.5 h; LC-MS/MS of basolateral medium; identified in two out of three experiments
Protocol: The human colorectal adenocarcinoma cell line, Caco-2, was obtained from DSMZ (Braunschweig, Germany). The cells were grown to 50–60% confluence in Dulbecco’s Modified Eagle Medium (DMEM) Glutamax cell culture medium, supplemented with 10% heat-inactivated fetal bovine serum, 100 units/mL of penicillin and 100 μg/mL of streptomycin (all from Invitrogen, Carlsbad, CA, USA) in a humidified 5% CO2/95% air atmosphere at 37 °C. The cells used in the experiments were between passages 30 and 40.
The Caco-2 cells used for transport studies were seeded in polyethylene terephthalate culture inserts, with a pore size of 0.4 μm and a growth area of 0.33 cm^2 at a density of approximately 25,000 cells/insert. The Caco-2 cells were grown for three weeks on the porous membrane before they were used for transepithelial transport. The integrity of the monolayers was confirmed by measuring the TEER using a Millicell ERS-2 volt ohmmeter. Only Caco-2 monolayers with TEER values above 400 Ω cm^2 were used for the transport analysis.
(§1) Following the TEER value measurement, the Caco-2 and PBEC monolayers were gently washed twice with phosphate-buffered saline, and the transport medium (Hanks’ Balanced Salt solution supplemented with 10 mM of HEPES) was added to the apical and basolateral compartments. The inserts were incubated for 15 min or 2.5 h with the purified milk peptides (0.1 mg/mL) or the synthetic PIGSENSEKTTMPLW peptide (2 µg/mL), after which medium from the apical and basolateral compartments were collected for liquid chromatography tandem mass spectrometry (LC-MS/MS) analysis. Inserts incubated with a medium without peptides served as the control in the transport experiments. Membrane integrity was validated by addition of D-[1-^14C]-Mannitol (3.5 µM, 56.8 mCi/mmol) (Perkin Elmer, Waltham, MA, USA) to the upper chamber of the culture inserts with or without milk peptides for 2.5 h. The passive permeability experiments were performed on four or five individual culture inserts. Basolateral samples were mixed with Ultima Gold liquid scintillation fluid (Perkin Elmer) and counted in a Tri-Carb 2810 TR scintillation counter (Perkin Elmer). The apparent permeability coefficient (Papp, cm/s) was determined as Papp = (dQ/dt)/(AC0) where dQ/dt is the steady state flux (cpm/s), A is the surface area of the cell culture insert membrane and C0 is the initial concentration in the apical compartment (cpm/mL).
LC-MS/MS analysis was performed on a TripleTOF 6600 mass spectrometer equipped with an Exigent nanoLC 415 system (AB Sciex, Les Ulis, France). All samples were micro-purified using 3 M Empore C18 discs packed in pipette tips. The lyophilized samples were dissolved in 0.1% formic acid, injected on a trap column (2 cm × 100 µm inner diameter) and separated on an analytical column packed in-house in a pulled emitter (15 cm × 75 µm inner diameter). All columns were packed with ReproSil-Pur C18-AQ 3 µm resin (courtesy of Dr. Marisch, Ammerbuch-Entringen, Germany). Peptides were eluted directly into the mass spectrometer with a linear gradient from 5 to 35% solvent B (0.1% formic acid in acetonitrile) for 20 min with a flowrate of 250 nL/min, followed after 10 min with 100% solvent B. Data files were converted to Mascot Generic Format using the Raw Converter (version 1.1.0.18) (http://fields.scripps.edu/rawconv/) or the AB Sciex MS Data Converter beta 1.1 (AB Sciex, Les Ulis, France). The generated peak lists were searched against the Bos taurus proteome (UniProt database, https://www.uniprot.org)) using an in-house Mascot search engine (Matrix Science, London, UK). The searches were made without specifying a protease and with oxidation (Met) and phosphorylation (ST) as variable modifications. Peptide tolerance was set to 10 ppm and MS/MS tolerance was set to 0.2 Da. […]

[2] = system: porcine brain endothelial cell (PBEC) monolayers; assay: Apical to basolateral transport of milk peptides across porcine brain endothelial cell (PBEC) monolayers, blood-brain barrier model; type: in vitro ADME; details: primary PBEC on polyester inserts 0.4 μm, astrocyte conditioned medium, TEER higher than 800 Ω cm^2; A-B; mix of 192 milk peptides 0.1 mg/mL apical; HBSS + 10 mM HEPES; 2.5 h; LC-MS/MS; five independent studies; αS1 peptide 'or' its truncated peptides stated collectively
Protocol: Capillaries were isolated from the brain cortices of domestic pigs 5–6 months old as previously described. PBECs were cultured by plating the capillaries in T75 flasks coated with collagen IV (500 µg/mL) and fibronectin (100 µg/mL) in DMEM-F12 medium, supplemented with 10% plasma-derived serum (First Link, Wolverhampton, UK), heparin (15 U), 100 units/mL of penicillin and 100 µg/mL of streptomycin (PBEC growth medium), and cultured in an incubator with humidified 5% CO2/95% air at 37 °C. Puromycin (4 µg/mL) was added to the growth medium for the first three days to obtain a pure culture of PBECs.
Astrocyte conditioned medium was collected every third day from primary rat astrocytes, sterile filtered and frozen until use. Isolation of primary rat astrocytes and preparation of astrocyte conditioned media were carried out as described in [20].
PBECs were grown until 70–80% confluency as described above and then passaged onto polyester culture inserts with a pore size of 0.4 μm and a growth area of 1.12 cm^2 (Costar, Corning, NY, USA) at a density of 1.1 × 10^5 cells/cm^2 in the PBEC growth medium. In the basolateral chamber, the medium consisted of 1 mL of PBEC growth medium and 0.5 mL of astrocyte conditioned medium. The medium was supplemented with differentiation factors: 550 nM of hydrocortisone, 250 μM of 8-(4-chlorophenylthio)adenosine-3′,5′-cyclic monophosphate (cAMP) and 17.5 μM of RO-201724 two days after seeding. The next day, the integrity of the PBEC monolayer was confirmed by measuring the TEER. Only PBEC monolayers with TEER values higher than 800 Ω cm^2 were used for the transport analysis.
as §1
LC-MS/MS analysis was performed on a TripleTOF 6600 mass spectrometer equipped with an Exigent nanoLC 415 system (AB Sciex, Les Ulis, France). All samples were micro-purified using 3 M Empore C18 discs packed in pipette tips. The lyophilized samples were dissolved in 0.1% formic acid, injected on a trap column (2 cm × 100 µm inner diameter) and separated on an analytical column packed in-house in a pulled emitter (15 cm × 75 µm inner diameter). All columns were packed with ReproSil-Pur C18-AQ 3 µm resin (courtesy of Dr. Marisch, Ammerbuch-Entringen, Germany). […]

Caco-2 monolayers [3] = system: Caco-2 monolayers; design: method as in PMID 20397193, PMID 23561097; details: Caco-2 monolayer; cited from earlier work
[4] = system: angiotensin-converting enzyme (ACE); details: potential anti-hypertensive peptides; cited from earlier work
Excerpt: The ACE-inhibitory ability is presumably mediated through the derived fragments TTMPLW and KTTMP [36, 37]. Thus, the transport of this peptide across physiological barriers could influence the regulation of arterial blood pressure. Furthermore, ACE is present in the brain and plays a key role in high salt induced sympatho-excitation, hypertension, neuroprotection, cognition and cerebr ...

| Sequence | Peptide identified in the basolateral chamber of Caco-2 monolayers (transported) (Caco-2 monolayers [1]) | Peptide identified in the basal compartment (brain side) of the PBEC BBB model (transported) [2] | Crossing of in vitro intestinal barrier models in other studies (Caco-2 monolayers [3]) | Inhibition of the activity of angiotensin-converting enzyme (ACE) [4] |
| --- | --- | --- | --- | --- |
| EPVLGPVRGPFPIIV [EPVLGPVRGPFPIIV] | not transported across the Caco-2 monolayers | identified in the basal compartment of the BBB model | shown to cross over in vitro intestinal barrier models | – |
| IGSENSEKTTMP [truncated derivative of the αS1-casein peptide …] | – | identified in all experiments | – | can inhibit the activity of angiotensin-converting enzyme |
